Tests used:
Assay in all cases: relative viability (nuclei count vs DMSO), 5 days (fraction); higher = more cells survive
[1] = system: NCI-H2405
Outline: (§1)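 Lung cancer cell lines were seeded in 1536-well plates and dosed by pin tool the next day, with either a single drug or a fixed anchor-drug dose combined with five library-drug doses (not always all listed) spaced in √10 steps. Five days later, one step fixed the cells and stained their nuclei (final 0.05% Triton X-100, 1% formaldehyde, 1 ug/ml Hoechst), and nuclei were counted on 4× images. Relative viability is the nuclei count in treated wells divided by the count in vehicle wells, and each value is the median of duplicate plates.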

[2] = system: NCI-H1650
Outline: as §1

[3] = system: NCI-H520
Outline: as §1

[4] = system: H3255
Outline: as §1

[5] = system: NCI-H1651
Outline: as §1

[6] = system: RERF-LC-KJ
Outline: as §1

[7] = system: NCI-H1355
Outline: as §1

[8] = system: LK-2
Outline: as §1

[9] = system: PC-3 [JPC-3]
Outline: as §1

[10] = system: NCI-H661
Outline: as §1

[11] = system: NCI-H1734
Outline: as §1

[12] = system: PC-14
Outline: as §1

[13] = system: COR-L23
Outline: as §1

[14] = system: HCC-827
Outline: as §1

[15] = system: EKVX
Outline: as §1

[16] = system: NCI-H1437
Outline: as §1

[17] = system: SW 1573
Outline: as §1

[18] = system: NCI-H2228
Outline: as §1

[19] = system: SK-MES-1
Outline: as §1

[20] = system: HCC-15
Outline: as §1

[21] = system: NCI-H322M
Outline: as §1

[22] = system: NCI-H1563
Outline: as §1

[23] = system: CAL-12T
Outline: as §1

Question: For `COc1cc(N2CCC(C(N)=O)CC2)ccc1Nc1nc(N)c(Cl)c(Nc2ccccc2S(=O)(=O)C(C)C)n1` [HG-5-88-01] + Nc1nc2[nH]cc(CCc3ccc(C(=O)N[C@@H](CCC(=O)O)C(=O)O)cc3)c2c(=O)[nH]1 [Pemetrexed] (partner 0.2 µM), which relative viability ([1]; first compound 0.04 µM) is on record?
Answer: 0.965

Question: What about the relative viability ([1]; first compound 0.1265 µM) of the same compound?
Answer: 1.16

Question: And the relative viability ([1]; first compound 0.4 µM)?
Answer: 0.973

Question: And the relative viability ([1]; first compound 1.265 µM)?
Answer: 0.852

Question: And the relative viability ([1]; first compound 4 µM)?
Answer: 0.954

Question: What about the relative viability ([2]; first compound 0.04 µM) of the same compound?
Answer: 0.352

Question: And the relative viability ([2]; first compound 0.1265 µM)?
Answer: 0.36

Question: And the relative viability ([2]; first compound 0.4 µM)?
Answer: 0.346

Question: What about the relative viability ([2]; first compound 1.265 µM) of the same compound?
Answer: 0.343

Question: What about the relative viability ([2]; first compound 4 µM) of the same compound?
Answer: 0.354

Question: And the relative viability ([3]; first compound 0.04 µM)?
Answer: 0.604

Question: And the relative viability ([3]; first compound 0.1265 µM)?
Answer: 0.592

Question: And the relative viability ([3]; first compound 0.4 µM)?
Answer: 0.454

Question: What about the relative viability ([3]; first compound 1.265 µM) of the same compound?
Answer: 0.737

Question: What about the relative viability ([3]; first compound 4 µM) of the same compound?
Answer: 0.61

Question: And the relative viability ([4]; first compound 0.04 µM)?
Answer: 0.578

Question: What about the relative viability ([4]; first compound 0.1265 µM) of the same compound?
Answer: 0.571

Question: And the relative viability ([4]; first compound 0.4 µM)?
Answer: 0.54

Question: And the relative viability ([4]; first compound 4 µM)?
Answer: 0.501

Question: What about the relative viability ([5]; first compound 0.04 µM) of the same compound?
Answer: 0.499

Question: What about the relative viability ([5]; first compound 0.1265 µM) of the same compound?
Answer: 0.586

Question: And the relative viability ([5]; first compound 0.4 µM)?
Answer: 0.622

Question: What about the relative viability ([5]; first compound 1.265 µM) of the same compound?
Answer: 0.538

Question: And the relative viability ([5]; first compound 4 µM)?
Answer: 0.614

Question: And the relative viability ([6]; first compound 0.04 µM)?
Answer: 0.521

Question: What about the relative viability ([6]; first compound 0.1265 µM) of the same compound?
Answer: 0.509

Question: And the relative viability ([6]; first compound 0.4 µM)?
Answer: 0.448

Question: What about the relative viability ([6]; first compound 1.265 µM) of the same compound?
Answer: 0.446

Question: And the relative viability ([6]; first compound 4 µM)?
Answer: 0.239

Question: What about the relative viability ([7]; first compound 0.04 µM) of the same compound?
Answer: 1.11

Question: And the relative viability ([7]; first compound 0.1265 µM)?
Answer: 1.03

Question: And the relative viability ([7]; first compound 0.4 µM)?
Answer: 0.726

Question: And the relative viability ([7]; first compound 1.265 µM)?
Answer: 1.04

Question: What about the relative viability ([7]; first compound 4 µM) of the same compound?
Answer: 0.685

Question: What about the relative viability ([8]; first compound 0.04 µM) of the same compound?
Answer: 0.159

Question: And the relative viability ([8]; first compound 0.1265 µM)?
Answer: 0.295

Question: What about the relative viability ([8]; first compound 0.4 µM) of the same compound?
Answer: 0.249

Question: And the relative viability ([8]; first compound 4 µM)?
Answer: 0.202

Question: And the relative viability ([9]; first compound 0.04 µM)?
Answer: 1.16

Question: What about the relative viability ([9]; first compound 0.1265 µM) of the same compound?
Answer: 1.1

Question: What about the relative viability ([9]; first compound 0.4 µM) of the same compound?
Answer: 0.935

Question: And the relative viability ([9]; first compound 1.265 µM)?
Answer: 0.913

Question: What about the relative viability ([9]; first compound 4 µM) of the same compound?
Answer: 0.348

Question: What about the relative viability ([10]; first compound 0.04 µM) of the same compound?
Answer: 0.909

Question: And the relative viability ([10]; first compound 0.1265 µM)?
Answer: 0.931

Question: And the relative viability ([10]; first compound 0.4 µM)?
Answer: 0.883

Question: And the relative viability ([10]; first compound 1.265 µM)?
Answer: 0.974

Question: And the relative viability ([10]; first compound 4 µM)?
Answer: 0.965

Question: And the relative viability ([11]; first compound 0.04 µM)?
Answer: 0.398

Question: And the relative viability ([11]; first compound 0.1265 µM)?
Answer: 0.423

Question: What about the relative viability ([11]; first compound 0.4 µM) of the same compound?
Answer: 0.361

Question: And the relative viability ([11]; first compound 1.265 µM)?
Answer: 0.391

Question: And the relative viability ([11]; first compound 4 µM)?
Answer: 0.375

Question: And the relative viability ([12]; first compound 0.04 µM)?
Answer: 0.124

Question: And the relative viability ([12]; first compound 0.1265 µM)?
Answer: 0.114

Question: And the relative viability ([12]; first compound 0.4 µM)?
Answer: 0.0722

Question: What about the relative viability ([12]; first compound 1.265 µM) of the same compound?
Answer: 0.129

Question: What about the relative viability ([12]; first compound 4 µM) of the same compound?
Answer: 0.074

Question: And the relative viability ([13]; first compound 0.04 µM)?
Answer: 0.196

Question: What about the relative viability ([13]; first compound 0.1265 µM) of the same compound?
Answer: 0.208

Question: What about the relative viability ([13]; first compound 0.4 µM) of the same compound?
Answer: 0.184

Question: What about the relative viability ([13]; first compound 1.265 µM) of the same compound?
Answer: 0.199

Question: What about the relative viability ([13]; first compound 4 µM) of the same compound?
Answer: 0.166

Question: And the relative viability ([14]; first compound 0.04 µM)?
Answer: 0.24

Question: And the relative viability ([14]; first compound 0.1265 µM)?
Answer: 0.262

Question: And the relative viability ([14]; first compound 0.4 µM)?
Answer: 0.216

Question: And the relative viability ([14]; first compound 1.265 µM)?
Answer: 0.141

Question: And the relative viability ([14]; first compound 4 µM)?
Answer: 0.193

Question: What about the relative viability ([15]; first compound 0.04 µM) of the same compound?
Answer: 0.468

Question: And the relative viability ([15]; first compound 0.1265 µM)?
Answer: 0.407

Question: What about the relative viability ([15]; first compound 0.4 µM) of the same compound?
Answer: 0.301

Question: What about the relative viability ([15]; first compound 4 µM) of the same compound?
Answer: 0.352

Question: What about the relative viability ([16]; first compound 0.04 µM) of the same compound?
Answer: 0.296

Question: What about the relative viability ([16]; first compound 0.1265 µM) of the same compound?
Answer: 0.334

Question: And the relative viability ([16]; first compound 0.4 µM)?
Answer: 0.267

Question: What about the relative viability ([16]; first compound 1.265 µM) of the same compound?
Answer: 0.327

Question: What about the relative viability ([16]; first compound 4 µM) of the same compound?
Answer: 0.277

Question: What about the relative viability ([17]; first compound 0.04 µM) of the same compound?
Answer: 0.871

Question: And the relative viability ([17]; first compound 0.1265 µM)?
Answer: 0.79

Question: And the relative viability ([17]; first compound 0.4 µM)?
Answer: 0.689

Question: What about the relative viability ([17]; first compound 1.265 µM) of the same compound?
Answer: 0.777

Question: What about the relative viability ([17]; first compound 4 µM) of the same compound?
Answer: 0.823

Question: And the relative viability ([18]; first compound 0.04 µM)?
Answer: 0.372

Question: And the relative viability ([18]; first compound 0.1265 µM)?
Answer: 0.237

Question: And the relative viability ([18]; first compound 0.4 µM)?
Answer: 0.237

Question: And the relative viability ([18]; first compound 1.265 µM)?
Answer: 0.26

Question: What about the relative viability ([18]; first compound 4 µM) of the same compound?
Answer: 0.183

Question: And the relative viability ([19]; first compound 0.04 µM)?
Answer: 0.922

Question: And the relative viability ([19]; first compound 0.1265 µM)?
Answer: 0.923

Question: And the relative viability ([19]; first compound 0.4 µM)?
Answer: 0.827

Question: What about the relative viability ([19]; first compound 1.265 µM) of the same compound?
Answer: 0.853

Question: And the relative viability ([19]; first compound 4 µM)?
Answer: 1

Question: What about the relative viability ([20]; first compound 0.04 µM) of the same compound?
Answer: 0.209

Question: What about the relative viability ([20]; first compound 0.1265 µM) of the same compound?
Answer: 0.221

Question: What about the relative viability ([20]; first compound 0.4 µM) of the same compound?
Answer: 0.213

Question: What about the relative viability ([20]; first compound 1.265 µM) of the same compound?
Answer: 0.229

Question: What about the relative viability ([20]; first compound 4 µM) of the same compound?
Answer: 0.185

Question: What about the relative viability ([21]; first compound 0.04 µM) of the same compound?
Answer: 0.638

Question: What about the relative viability ([21]; first compound 0.1265 µM) of the same compound?
Answer: 0.536

Question: What about the relative viability ([21]; first compound 0.4 µM) of the same compound?
Answer: 0.607

Question: What about the relative viability ([21]; first compound 1.265 µM) of the same compound?
Answer: 0.55

Question: What about the relative viability ([21]; first compound 4 µM) of the same compound?
Answer: 0.509

Question: What about the relative viability ([22]; first compound 0.04 µM) of the same compound?
Answer: 0.798

Question: And the relative viability ([22]; first compound 0.1265 µM)?
Answer: 0.754

Question: And the relative viability ([22]; first compound 0.4 µM)?
Answer: 0.767

Question: And the relative viability ([22]; first compound 1.265 µM)?
Answer: 0.652

Question: And the relative viability ([22]; first compound 4 µM)?
Answer: 0.973

Question: What about the relative viability ([23]; first compound 0.04 µM) of the same compound?
Answer: 1.25

Question: What about the relative viability ([23]; first compound 0.1265 µM) of the same compound?
Answer: 1.14

Question: And the relative viability ([23]; first compound 0.4 µM)?
Answer: 1.24

Question: And the relative viability ([23]; first compound 1.265 µM)?
Answer: 0.995

Question: And the relative viability ([23]; first compound 4 µM)?
Answer: 0.754
